Experimental data from US12371454B2, “Cyclic peptide compound having Kras inhibitory action” (priority 2019, dated 2025).
Starred links: 1 amine or outer side, 2 acyl side, 3 side chain; linkers in the order of their positions; H or OH if unused. Positions of bridges follow the written chain, without caps; N, C: chain ends. Non-standard residues stand in square brackets, D forms with d. Residues, ends and D or L forms follow the SMILES beside them. *: point of attachment. hPhe(3-Cl-4-CF3) = N[C@@H](CCc1ccc(C(F)(F)F)c(Cl)c1)C(=O)O; NMePhe(4-Me) = CN[C@@H](Cc1ccc(C)cc1)C(=O)O; NMedβ3hAla = C[C@H](CC(=O)[*:2])N(C)[*:1]; NMeGly(cPent) = CN[C@H](C(=O)O)C1CCCC1; NMe3Pal = CN[C@@H](Cc1cccnc1)C(=O)O; NMeCha = CN[C@@H](CC1CCCCC1)C(=O)O; Hyp = O=C(O)[C@@H]1C[C@@H](O)CN1; NMeAhp(2) = CCCCC[C@H](NC)C(=O)O; NMeChg = CN[C@H](C(=O)O)C1CCCCC1; NMeI = CC[C@H](C)[C@H](NC)C(=O)O; NMeD = CN[C@@H](CC(=O)O)C(=O)O; NMeL = CN[C@@H](CC(C)C)C(=O)O; NMeNle = CCCC[C@H](NC)C(=O)O; NMeV = CN[C@H](C(=O)O)C(C)C; NMeS = CN[C@@H](CO)C(=O)O; Morpholide = C1CN(*)CCO1; NMeA = CN[C@@H](C)C(=O)O; Piperidide = C1CCN(*)CC1; Pyrrolidide = C1CCN(*)C1; dNMeA = CN[C@H](C)C(=O)O; Ac5c = NC1(C(=O)O)CCCC1; Aze = O=C(O)[C@@H]1CCN1; Cyclopropyl = C1CC1*; Sar = CNCC(=O)O; Propyl = CCC*

Tested on: Human pancreatic cancer cell line AsPC-1
Assay: Measurement of AsPC-1 cell growth inhibition (AsPC-1 CGI)
Assay type: cell-based
Details: 96 h
In short: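 AsPC-1 cells in 15% FBS RPMI-1640 were exposed to test compound for 96 hours at 37° C, with CellTiter-Glo as endpoint.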

SMILES | IC50 [µM]
CC[C@H](C)[C@@H]1NC(=O)[C@H](CC(C)C)N(C)C(=O)C[C@@H](C(=O)N2CCCC2)N(C)C(=O)[C@H](C2CCCC2)N(C)C(=O)C2(CCCC2)NC(=O)[C@@H]2CCCN2C(=O)[C@H](CCc2ccc(C(F)(F)F)c(Cl)c2)NC(=O)CN(C)C(=O)[C@H](CC2CCCCC2)N(C)C(=O)[C@@H]2CCN2C(=O)[C@H](C)N(C)C1=O [Compound 1679] ([NMeL]I[NMeA][Aze][NMeCha][Sar][hPhe(3-Cl-4-CF3)]P[Ac5c][NMeGly(cPent)][NMeD]-Pyrrolidide; lactam N-11) | 0.02 to 0.05
CC[C@H](C)[C@@H]1NC(=O)[C@H](CC(C)C)N(C)C(=O)C[C@@H](C(=O)N(C)C)N(C)C(=O)[C@H](C2CCCCC2)N(C)C(=O)C2(CCCC2)NC(=O)[C@@H]2CCCN2C(=O)[C@H](CCc2ccc(C(F)(F)F)c(Cl)c2)NC(=O)CN(C)C(=O)[C@H](Cc2ccc(C)cc2)N(C)C(=O)[C@@H]2CCN2C(=O)[C@H](C)N(C)C1=O [Compound 1685] ([NMeL]I[NMeA][Aze][NMePhe(4-Me)][Sar][hPhe(3-Cl-4-CF3)]P[Ac5c][NMeChg][NMeD]-NMe2; lactam N-11) | 0.02 to 0.05
CC[C@H](C)[C@@H]1NC(=O)[C@H](CC(C)C)N(C)C(=O)C[C@@H](C(=O)N2CCCC2)N(C)C(=O)[C@H](C2CCCCC2)N(C)C(=O)C2(CCCC2)NC(=O)[C@H](Cc2cccnc2)N(C)C(=O)[C@H](CCc2ccc(C(F)(F)F)c(Cl)c2)NC(=O)CN(C)C(=O)[C@H](CC2CCCCC2)N(C)C(=O)CN(C)C(=O)CN(C)C1=O [Compound 1693] ([NMeL]I[Sar][Sar][NMeCha][Sar][hPhe(3-Cl-4-CF3)][NMe3Pal][Ac5c][NMeChg][NMeD]-Pyrrolidide; lactam N-11) | 0.1 to 0.5
CCCCC[C@H]1C(=O)N[C@@H]([C@@H](C)CC)C(=O)N(C)[C@@H](C)C(=O)N2CC[C@H]2C(=O)N(C)[C@@H](CC2CCCCC2)C(=O)N(C)CC(=O)N[C@@H](CCc2ccc(C(F)(F)F)c(Cl)c2)C(=O)N2CCC[C@H]2C(=O)NC2(CCCC2)C(=O)N(C)[C@@H](C(C)C)C(=O)N(C)[C@H](C(=O)N2CCCCC2)CC(=O)N1C [Compound 1705] ([NMeAhp(2)]I[NMeA][Aze][NMeCha][Sar][hPhe(3-Cl-4-CF3)]P[Ac5c][NMeV][NMeD]-Piperidide; lactam N-11) | 0.1 to 0.5
CCCC[C@H]1C(=O)N(C)CC(=O)N[C@@H](CCc2ccc(C(F)(F)F)c(Cl)c2)C(=O)N2CCC[C@H]2C(=O)NC2(CCCC2)C(=O)N(C)[C@@H](C(C)C)C(=O)N(C)[C@H](C(=O)N2CCCCC2)CC(=O)N(C)[C@@H](CC(C)C)C(=O)N[C@@H]([C@@H](C)CC)C(=O)N(C)[C@@H](C)C(=O)N2CC[C@H]2C(=O)N1C [Compound 1712] ([NMeL]I[NMeA][Aze][NMeNle][Sar][hPhe(3-Cl-4-CF3)]P[Ac5c][NMeV][NMeD]-Piperidide; lactam N-11) | 0.1 to 0.5
CC[C@H](C)[C@@H]1NC(=O)[C@H](CC(C)C)N(C)C(=O)C[C@@H](C)N(C)C(=O)[C@H](C2CCCC2)N(C)C(=O)C2(CCCC2)NC(=O)[C@@H]2CCCN2C(=O)[C@H](CCc2ccc(C(F)(F)F)c(Cl)c2)NC(=O)CN(C)C(=O)[C@H](CC2CCCCC2)N(C)C(=O)[C@@H]2CCN2C(=O)[C@H](C)N(C)C1=O [Compound 1717] (cyclo([Ac5c][NMeGly(cPent)][NMedβ3hAla][NMeL]I[NMeA][Aze][NMeCha][Sar][hPhe(3-Cl-4-CF3)]P)) | 0.05 to 0.1
CC[C@H](C)[C@@H]1NC(=O)[C@H](CC(C)C)N(C)C(=O)C[C@@H](C(=O)N2CCCCC2)N(C)C(=O)[C@H]([C@@H](C)CC)N(C)C(=O)C2(CCCC2)NC(=O)[C@@H]2CCCN2C(=O)[C@H](CCc2ccc(C(F)(F)F)c(Cl)c2)NC(=O)CN(C)C(=O)[C@H](CC2CCCCC2)N(C)C(=O)[C@@H]2CCN2C(=O)[C@H](C)N(C)C1=O [Compound 1722] ([NMeL]I[NMeA][Aze][NMeCha][Sar][hPhe(3-Cl-4-CF3)]P[Ac5c][NMeI][NMeD]-Piperidide; lactam N-11) | 0.02 to 0.05
CC[C@H](C)[C@@H]1NC(=O)[C@H](CC(C)C)N(C)C(=O)C[C@@H](C(=O)N2CCCCC2)N(C)C(=O)[C@H]([C@@H](C)CC)N(C)C(=O)C2(CCCC2)NC(=O)[C@@H]2CCCN2C(=O)[C@H](CCc2ccc(C(F)(F)F)c(Cl)c2)NC(=O)CN(C)C(=O)[C@H](Cc2ccc(C)cc2)N(C)C(=O)[C@@H]2CCN2C(=O)[C@H](C)N(C)C1=O [Compound 1727] ([NMeL]I[NMeA][Aze][NMePhe(4-Me)][Sar][hPhe(3-Cl-4-CF3)]P[Ac5c][NMeI][NMeD]-Piperidide; lactam N-11) | 0.02 to 0.05
CC[C@H](C)[C@@H]1NC(=O)[C@H](CC(C)C)N(C)C(=O)C[C@@H](C(=O)N2CCCCC2)N(C)C(=O)[C@H](C(C)C)N(C)C(=O)C2(CCCC2)NC(=O)[C@@H]2CCCN2C(=O)[C@H](CCc2ccc(C(F)(F)F)c(Cl)c2)NC(=O)CN(C)C(=O)[C@H](C(C)C)N(C)C(=O)[C@@H]2CCN2C(=O)[C@H](C)N(C)C1=O [Compound 1737] ([NMeL]I[NMeA][Aze][NMeV][Sar][hPhe(3-Cl-4-CF3)]P[Ac5c][NMeV][NMeD]-Piperidide; lactam N-11) | 0.1 to 0.5
CCO[C@@H]1C[C@H]2C(=O)NC3(CCCC3)C(=O)N(C)[C@@H](CC(C)C)C(=O)N(C)[C@H](C(=O)N3CCCC3)CC(=O)N(C)[C@@H](CC(C)C)C(=O)N[C@@H]([C@@H](C)CC)C(=O)N(C)CC(=O)N(C)CC(=O)N(C)[C@@H](CC3CCCCC3)C(=O)N(C)CC(=O)N[C@@H](CCc3ccc(C(F)(F)F)c(Cl)c3)C(=O)N2C1 [Compound 1748] ([NMeL]I[Sar][Sar][NMeCha][Sar][hPhe(3-Cl-4-CF3)][Hyp](Et)[Ac5c][NMeL][NMeD]-Pyrrolidide; lactam N-11) | 0.05 to 0.1
CC[C@H](C)[C@@H]1NC(=O)[C@H](CC(C)C)N(C)C(=O)C[C@@H](C(=O)N2CCOCC2)N(C)C(=O)[C@H](C(C)C)N(C)C(=O)C2(CCCC2)NC(=O)[C@@H]2CCCN2C(=O)[C@H](CCc2ccc(C(F)(F)F)c(Cl)c2)NC(=O)CN(C)C(=O)[C@H](CC2CCCCC2)N(C)C(=O)[C@@H]2CCN2C(=O)CN(C)C1=O [Compound 1758] ([NMeL]I[Sar][Aze][NMeCha][Sar][hPhe(3-Cl-4-CF3)]P[Ac5c][NMeV][NMeD]-Morpholide; lactam N-11) | 0.1 to 0.5
CCCOC[C@H]1C(=O)N[C@@H]([C@@H](C)CC)C(=O)N(C)[C@@H](C)C(=O)N2CC[C@H]2C(=O)N(C)[C@@H](CC2CCCCC2)C(=O)N(C)CC(=O)N[C@@H](CCc2ccc(C(F)(F)F)c(Cl)c2)C(=O)N2CCC[C@H]2C(=O)NC2(CCCC2)C(=O)N(C)[C@@H](C(C)C)C(=O)N(C)[C@H](C(=O)N2CCCCC2)CC(=O)N1C [Compound 1763] ([NMeS](Propyl)I[NMeA][Aze][NMeCha][Sar][hPhe(3-Cl-4-CF3)]P[Ac5c][NMeV][NMeD]-Piperidide; lactam N-11) | 0.1 to 0.5
CC[C@H](C)[C@@H]1NC(=O)[C@H](COC2CC2)N(C)C(=O)C[C@@H](C(=O)N2CCCCC2)N(C)C(=O)[C@H](C(C)C)N(C)C(=O)C2(CCCC2)NC(=O)[C@@H]2CCCN2C(=O)[C@H](CCc2ccc(C(F)(F)F)c(Cl)c2)NC(=O)CN(C)C(=O)[C@H](CC2CCCCC2)N(C)C(=O)[C@@H]2CCN2C(=O)[C@H](C)N(C)C1=O [Compound 1764] ([NMeS](Cyclopropyl)I[NMeA][Aze][NMeCha][Sar][hPhe(3-Cl-4-CF3)]P[Ac5c][NMeV][NMeD]-Piperidide; lactam N-11) | 0.1 to 0.5
CC[C@H](C)[C@@H]1NC(=O)[C@H](C(C)C)N(C)C(=O)C[C@@H](C(=O)N2CCCCC2)N(C)C(=O)[C@H](C(C)C)N(C)C(=O)C2(CCCC2)NC(=O)[C@@H]2CCCN2C(=O)[C@H](CCc2ccc(C(F)(F)F)c(Cl)c2)NC(=O)CN(C)C(=O)[C@H](CC2CCCCC2)N(C)C(=O)[C@@H]2CCN2C(=O)[C@H](C)N(C)C1=O [Compound 1767] ([NMeV]I[NMeA][Aze][NMeCha][Sar][hPhe(3-Cl-4-CF3)]P[Ac5c][NMeV][NMeD]-Piperidide; lactam N-11) | 0.1 to 0.5
CC[C@H](C)[C@@H]1NC(=O)[C@H](C)N(C)C(=O)C[C@@H](C)N(C)C(=O)[C@H](C(C)C)N(C)C(=O)C2(CCCC2)NC(=O)[C@@H]2CCCN2C(=O)[C@H](CCc2ccc(C(F)(F)F)c(Cl)c2)NC(=O)[C@@H](C)N(C)C(=O)[C@H](CC2CCCCC2)N(C)C(=O)[C@@H]2CCN2C(=O)[C@H](C)N(C)C1=O [Compound 1773] (cyclo([Ac5c][NMeV][NMedβ3hAla][NMeA]I[NMeA][Aze][NMeCha][dNMeA][hPhe(3-Cl-4-CF3)]P)) | 0.1 to 0.5
CCO[C@@H]1C[C@H]2C(=O)NC3(CCCC3)C(=O)N(C)[C@@H](CC(C)C)C(=O)N(C)[C@H](C(=O)N3CCOCC3)CC(=O)N(C)[C@@H](CC(C)C)C(=O)N[C@@H]([C@@H](C)CC)C(=O)N(C)CC(=O)N(C)CC(=O)N(C)[C@@H](CC3CCCCC3)C(=O)N(C)CC(=O)N[C@@H](CCc3ccc(C(F)(F)F)c(Cl)c3)C(=O)N2C1 [Compound 1785] ([NMeL]I[Sar][Sar][NMeCha][Sar][hPhe(3-Cl-4-CF3)][Hyp](Et)[Ac5c][NMeL][NMeD]-Morpholide; lactam N-11) | 0.05 to 0.1
CC(C)C[C@H]1C(=O)N[C@@H](C(C)C)C(=O)N(C)[C@@H](C)C(=O)N2CC[C@H]2C(=O)N(C)[C@@H](CC2CCCCC2)C(=O)N(C)CC(=O)N[C@@H](CCc2ccc(C(F)(F)F)c(Cl)c2)C(=O)N2CCC[C@H]2C(=O)NC2(CCCC2)C(=O)N(C)[C@@H](C(C)C)C(=O)N(C)[C@H](C(=O)N2CCCCC2)CC(=O)N1C [Compound 1791] ([NMeL]V[NMeA][Aze][NMeCha][Sar][hPhe(3-Cl-4-CF3)]P[Ac5c][NMeV][NMeD]-Piperidide; lactam N-11) | 0.1 to 0.5
CC[C@H](C)[C@@H]1NC(=O)[C@H](CC(C)C)N(C)C(=O)C[C@@H](C(=O)N2CCCCC2)N(C)C(=O)[C@H](C2CCCCC2)N(C)C(=O)C2(CCCC2)NC(=O)[C@@H]2CCCN2C(=O)[C@H](CCc2ccc(C(F)(F)F)c(Cl)c2)NC(=O)CN(C)C(=O)[C@H](Cc2ccc(C)cc2)N(C)C(=O)[C@@H]2CCN2C(=O)[C@H](C)N(C)C1=O [Compound 1795] ([NMeL]I[NMeA][Aze][NMePhe(4-Me)][Sar][hPhe(3-Cl-4-CF3)]P[Ac5c][NMeChg][NMeD]-Piperidide; lactam N-11) | 0.05 to 0.1
